Test results published in paper PMC5016780, “Development of a Cell-penetrating Peptide that Exhibits Responsive Changes in its Secondary Structure in the Cellular Environment” (Scientific Reports, 2016).
“Also recorded” adds a separate entry of the source. Non-standard residues stand in square brackets, D forms with d. Residues, ends and D or L forms follow the SMILES beside them. *: point of attachment. 5FAM = O=C1OC2(c3ccc(O)cc3Oc3cc(O)ccc32)c2ccc(C(=O)*)cc21; Pro(cis-4-guanidino) = NC(N)=N[C@@H]1CN[C@H](C(=O)O)C1; Pro(4S-NH2) = N[C@@H]1CN[C@H](C(=O)O)C1; βAla = NCCC(=O)O

How the values were obtained:
[1] = Peptide stability in culture medium containing 10% FBS (pre-incubation uptake and LC-MS); type: in vitro ADME; settings: 0–24 h at 37 °C, then 2 hr with HeLa cells at 37 °C (1 μM, flow cytometry), and LC-MS analysis, 1–24 hr in culture medium containing 10% FBS
Experimental: Figure S8. (a) Cellular uptake of the peptides 1-5 after 1-24 h pre-incubation (peptide concentration: 1 µM). Values are the means ± standard deviation of three independent Figure 5b. Cellular uptake of the peptides 1-5 LC-MS analsisys. the stability of the peptides (1-24 hr) after 1-24 hr pre-incubation. in culture media containing 10% FBS using LC-MS. cultures. (b) The peptides’ stability (1-24 hr) analysis in culture medium containing FBS using LCCytotoxicity-MS. […]

HeLa cells [2] = test: Time course of cellular uptake (1–24 hr); type: cell-based; settings: 37 °C, 1 μM peptide; for stability in culture medium / cellular environment, as concluded from the uptake time course: culture medium containing fetal bovine serum (FBS)
Experimental: The results of the cytotoxicity analysis, in which HeLa cells were treated with peptides 1–5 for 24 hr at concentrations of 1, 4, and 8 μM, are shown in Fig. S9. […] Next, we investigated the intracellular uptake pathways of R9 and peptide 3. In the presence of various endocytosis inhibitors (amiloride, a macropinocytosis inhibitor[37]; nystatin, a caveolae-mediated endocytosis inhibitor[38]; and sucrose, a clathrin-mediated endocytosis inhibitor[39]), the migration levels of R9 and 3 into the HeLa cells were compared (Fig. S10). […] Then, we investigated the intracellular localization and dynamic behavior of R9 and 3 using fluorescence microscopy. The cells’ late endosomes/lysosomes were stained with LysoTracker Red (red), and their nuclei were stained with Hoechst 33342 (blue). […] As a general approach, peptides that can change their helical structures in accordance with pH fluctuations are often used to promote escape from endosomes. […] We considered that peptide 3 might also directly penetrate the cell membrane more efficiently than R9 (R9 passes through the cell membrane via not only endocytosis but also non-endocytosis pathway, that is, direct permeation to the cell membrane)[44]. Therefore, we investigated the intracellular uptake of peptide 3 at low temperature using flow cytometry and fluorescence microscopy. At low temperature, energy-dependent pathways such as endocytosis are inhibited so it is possible to assess direct peptide penetration via energy-independent pathways. […] Peptides that can directly penetrate through the cell membrane can be used for efficient intracellular delivery as they are not affected by problems associated with the need to escape from endosomes.
Figure 5 (a) Cellular uptake of the peptides 1–5 and R9 after 1–24 hr (peptide concentration: 1 μM). Values are the means ± standard deviation of three independent cultures. (b,c) Peptide 3 and R9 were colocalized with lysosome marker. HeLa cells were treated with 10 μM peptides at 37 °C for 2 hr. The acidic late endosomes/lysosomes were stained with LysoTracker Red (red), and the nuclei were stained with Hoechst 33342 (blue). The scale bars represent 50 μm.
HeLa, A549, Jurkat and CHO-K1 cells were seeded in 6-well dishes at a density of 4.0 × 10^6 cells/well and cultured in DMEM (HeLa, A549), RPMI-1640 (Jurkat) and Ham’s F-12 (CHO-K1) for 24 hr, respectively. The cells were treated with each peptide (peptide concentration; 1 μM) and incubated for each time (1, 2, 4, 8, 16 and 24 hr). Then, the cells were washed three times with phosphate buffer (PBS) supplemented with heparin (20 units/mL) and detached by treatment of trypsin-EDTA. […] Then, the collected cells were suspended in 500 μL of PBS buffer and mean fluorescence intensity in cells was measured by flow cytometer. […]

HeLa cells [3] = test: Intracellular localization by fluorescence microscopy (endosomal escape); type: cell-based; settings: 10 μM peptide, 37 °C, 15 min–2 hr, LysoTracker Red and Hoechst 33342 staining
Experimental: The results of the cytotoxicity analysis, in which HeLa cells were treated with peptides 1–5 for 24 hr at concentrations of 1, 4, and 8 μM, are shown in Fig. S9. […] Next, we investigated the intracellular uptake pathways of R9 and peptide 3. In the presence of various endocytosis inhibitors (amiloride, a macropinocytosis inhibitor[37]; nystatin, a caveolae-mediated endocytosis inhibitor[38]; and sucrose, a clathrin-mediated endocytosis inhibitor[39]), the migration levels of R9 and 3 into the HeLa cells were compared (Fig. S10). […] Then, we investigated the intracellular localization and dynamic behavior of R9 and 3 using fluorescence microscopy. The cells’ late endosomes/lysosomes were stained with LysoTracker Red (red), and their nuclei were stained with Hoechst 33342 (blue). […] As a general approach, peptides that can change their helical structures in accordance with pH fluctuations are often used to promote escape from endosomes. […] Therefore, we investigated the intracellular uptake of peptide 3 at low temperature using flow cytometry and fluorescence microscopy. […]
Figure S11. Fluorescence microscopy images of HeLa cells that had been treated with 10 µM of peptides [(a) peptide 3, (b) R9, (c) peptide 2] for 15 min-2 hr at 37 °C. […]
Figure S12. Fluorescence microscopy images of HeLa cells that had been treated with 10 µM of peptides [(a) R9, (b) peptide 3, (c) peptide 2] for 2 hr at 37 °C. […]

HeLa cells [4] = test: Uptake in the presence of endocytosis inhibitors; type: cell-based; settings: amiloride 25 μM, sucrose 0.4 M or nystatin 25 μg/mL, 1 μM peptide, 1 hr, flow cytometry
Experimental: The results of the cytotoxicity analysis, in which HeLa cells were treated with peptides 1–5 for 24 hr at concentrations of 1, 4, and 8 μM, are shown in Fig. S9. […] Next, we investigated the intracellular uptake pathways of R9 and peptide 3. In the presence of various endocytosis inhibitors (amiloride, a macropinocytosis inhibitor[37]; nystatin, a caveolae-mediated endocytosis inhibitor[38]; and sucrose, a clathrin-mediated endocytosis inhibitor[39]), the migration levels of R9 and 3 into the HeLa cells were compared (Fig. S10). […] Then, we investigated the intracellular localization and dynamic behavior of R9 and 3 using fluorescence microscopy. The cells’ late endosomes/lysosomes were stained with LysoTracker Red (red), and their nuclei were stained with Hoechst 33342 (blue). […] Therefore, we investigated the intracellular uptake of peptide 3 at low temperature using flow cytometry and fluorescence microscopy. […]
The cells were seeded onto 6-well culture plates (400,000 cells/well) and incubated overnight in 2 mL of DMEM containing 10% FBS. […] Then, fluorescence intensity in the cells was measured as above. […] Statistical differences were analyzed by Student’s t-test. […]
Figure S11. Fluorescence microscopy images of HeLa cells that had been treated with […]

| stability in culture medium / cellular environment, as concluded from the uptake time course (HeLa cells [2]) | Molecule | cell-penetrating ability and stability after pre-incubation in medium (in words) [1] | endosomal escape / localization (in words) (HeLa cells [3]) | effect of endocytosis inhibitors on uptake (in words) (HeLa cells [4]) | cellular uptake over incubation time (in words) (HeLa cells [2]; medium containing FBS, flow cytometry, three independent cultures) |
| --- | --- | --- | --- | --- | --- |
| – | N=C(N)NCCC[C@H](NC(=O)CCNC(=O)c1ccc2c(c1)C(=O)OC21c2ccc(O)cc2Oc2cc(O)ccc21)C(=O)N[C@@H](CCCNC(=N)N)C(=O)N1CCC[C@H]1C(=O)N[C@@H](CCCNC(=N)N)C(=O)N[C@@H](CCCNC(=N)N)C(=O)N1CCC[C@H]1C(=O)N[C@@H](CCCNC(=N)N)C(=O)N[C@@H](CCCNC(=N)N)C(=O)N1CCC[C@H]1C(=O)NCC(=O)NCC(=O)NCC(N)=O [peptide 1, FAM-β-Ala-(L-Arg-L-Arg-L-Pro)3-(Gly)3-NH2] (HELM PEPTIDE1{[O=C1OC2(c3ccc(O)cc3Oc3cc(O)ccc32)c2ccc(C(=O)[*:2])cc21].[bAla].R.R.P.R.R.P.R.R.P.G.G.G.[am]}$$$$V2.0) | sharply fell as the pre-incubation time increased | – | – | – |
| – | N=C(N)NCCC[C@H](NC(=O)CCNC(=O)c1ccc2c(c1)C(=O)OC21c2ccc(O)cc2Oc2cc(O)ccc21)C(=O)N[C@@H](CCCNC(=N)N)C(=O)N1C[C@@H](N)C[C@H]1C(=O)N[C@@H](CCCNC(=N)N)C(=O)N[C@@H](CCCNC(=N)N)C(=O)N1C[C@@H](N)C[C@H]1C(=O)N[C@@H](CCCNC(=N)N)C(=O)N[C@@H](CCCNC(=N)N)C(=O)N1C[C@@H](N)C[C@H]1C(=O)NCC(=O)NCC(=O)NCC(N)=O [peptide 2, FAM-β-Ala-(L-Arg-L-Arg-L-Pro^NH2)3-(Gly)3-NH2] ({5FAM-βAla}-RR[Pro(4S-NH2)]RR[Pro(4S-NH2)]RR[Pro(4S-NH2)]GGG-NH2) | more chemically stable than R9 and peptide 1 | – | – | – |
| more stable than R9 | N=C(N)NCCC[C@H](NC(=O)CCNC(=O)c1ccc2c(c1)C(=O)OC21c2ccc(O)cc2Oc2cc(O)ccc21)C(=O)N[C@@H](CCCNC(=N)N)C(=O)N1C[C@@H](NC(=N)N)C[C@H]1C(=O)N[C@@H](CCCNC(=N)N)C(=O)N[C@@H](CCCNC(=N)N)C(=O)N1C[C@@H](NC(=N)N)C[C@H]1C(=O)N[C@@H](CCCNC(=N)N)C(=O)N[C@@H](CCCNC(=N)N)C(=O)N1C[C@@H](NC(=N)N)C[C@H]1C(=O)NCC(=O)NCC(=O)NCC(N)=O [peptide 3, FAM-β-Ala-(L-Arg-L-Arg-L-Pro^Gu)3-(Gly)3-NH2] ({5FAM-βAla}-RR[Pro(cis-4-guanidino)]RR[Pro(cis-4-guanidino)]RR[Pro(cis-4-guanidino)]GGG-NH2) | more chemically stable than R9 and peptide 1; also recorded: remained stable in the medium containing FBS | – | – | – |
| more stable than R9 | N=C(N)NCCC[C@H](NC(=O)CCNC(=O)c1ccc2c(c1)C(=O)OC21c2ccc(O)cc2Oc2cc(O)ccc21)C(=O)N[C@@H](CCCNC(=N)N)C(=O)N1C[C@@H](NC(=N)N)C[C@H]1C(=O)N1C[C@@H](NC(=N)N)C[C@H]1C(=O)N[C@@H](CCCNC(=N)N)C(=O)N[C@@H](CCCNC(=N)N)C(=O)N[C@@H](CCCNC(=N)N)C(=O)N[C@@H](CCCNC(=N)N)C(=O)N1C[C@@H](NC(=N)N)C[C@H]1C(=O)NCC(=O)NCC(=O)NCC(N)=O [peptide 4, FAM-β-Ala-(L-Arg)2-(L-Pro^Gu)2-(L-Arg)4-L-Pro^Gu-(Gly)3-NH2] ({5FAM-βAla}-RR[Pro(cis-4-guanidino)][Pro(cis-4-guanidino)]RRRR[Pro(cis-4-guanidino)]GGG-NH2) | – | – | – | – |

| Molecule | stability in culture medium / cellular environment, as concluded from the uptake time course (HeLa cells [2]) | cell-penetrating ability and stability after pre-incubation in medium (in words) [1] | endosomal escape / localization (in words) (HeLa cells [3]) | effect of endocytosis inhibitors on uptake (in words) (HeLa cells [4]) | cellular uptake over incubation time (in words) (HeLa cells [2]; medium containing FBS, flow cytometry, three independent cultures) |
| --- | --- | --- | --- | --- | --- |
| nona-arginine [R9, reference compound] | unstable | sharply fell as the pre-incubation time increased | co-localized with the late endosomes/lysosomes | decreased by treatment with amiloride or sucrose | gradually decreased after 1-hr incubation |
